# In US20250032387A1, “A PERSONAL CARE OR PHARMACEUTICAL COMPOSITION” (Conopco, Inc., d/b/a UNILEVER, priority 2021, published 2025):
# System: Human epidermal keratinocytes
# Assay: in vitro scratch-wound assay (keratinocyte migration)
# Assay type: cell-based
# Conditions: primary human epidermal keratinocytes, 24 h pre-culture with active, 24 h further culture, wound area ratio divided by control (control = 1), active level wt % of medium
# Experimental: The migration of epidermal keratinocytes is the basis for skin re-epithelialization during wound healing. The in vitro scratch-wound assay using monolayers of primary human epidermal keratinocytes is a straightforward and effective method to assess the migratory capacity. Human epidermal keratinocytes (lot.: Ep21012001, Biocell) were seeded into 6-well plates, at 4.5×10^5 cells per well and maintained in a 37° C. incubator in an atmosphere of 5% of carbon dioxide in EpiLife™ Keratinocyte Medium until the cells reaching 70 to 80% of confluence in the well. Then, the cells were cultured by fresh medium (as control) or fresh medium supplemented with different actives for 24 hours. The cells were scratched by a […] of pipette tip in an identical manner to simulate the formation of wound, and images for the cells were taken immediately to record the wound. The cells were cultured again by identical fresh medium or fresh medium supplemented with different actives at 37° C. for 24 hours and images for the cells were taken again. The ratio of area before and after the further culture were obtained by using the software Image-pro plus. The relative migration rates for difference actives were calculated by dividing the values of control and were summarized in Table 1.
row,Compound,Relative migration rate
1,"NC(=O)c1cccnc1 [A, Niacinamide]",0.94
2,"NC(=O)c1cccnc1 [B, Niacinamide]",1.19
3,"NC(=O)c1cccnc1 [C, Niacinamide]",1.08
4,Lysine carboxymethyl cysteinate,1.15
5,Lysine carboxymethyl cysteinate [D],1.04
